Measured values from ChEMBL document CHEMBL1156829 (Proc Natl Acad Sci U S A, 2008).

Tests used:
Plasmodium falciparum [1] = test: NOVARTIS: Inhibition of Plasmodium falciparum 3D7 (drug-susceptible) proliferation in erythrocyte-based infection assay; type: functional, organism-based; settings: Plasmodium falciparum, 3D7
Plasmodium falciparum [2] = test: NOVARTIS: Inhibition of Plasmodium falciparum W2 (drug-resistant) proliferation in erythrocyte-based infection assay; type: functional, organism-based; settings: Plasmodium falciparum, W2; read-out: EC50
[3] = NOVARTIS: Cytotoxicity against human hepatocellular carcinoma cell line (Huh7); type: toxicity, cell-based, Huh-7; settings: Huh7 cells (hepatocellular carcinoma cell line)

`COc1ccc(C2=C(c3ccc(OC)cc3)C3(c4ccccc4)C(=O)C2(c2ccccc2)C2C(=O)N(c4ccccc4)C(=O)C23)cc1` (centres undefined) gave an EC50 (Plasmodium falciparum [1]) of 1400 nM, an EC50 (Plasmodium falciparum [2]) greater than 1130 nM and a CC50 [3] greater than 10000 nM.

In the case of `CC1CC2CCC(O2)C(C)C(=O)O[C@H](C)CC2CCC(O2)C(C)C(=O)OC(C)CC2CCC(O2)C(C)C(=O)O[C@H](C)CC2CCC(O2)C(C)C(=O)O1` (some centres undefined), the EC50 (Plasmodium falciparum [1]) is reported as 645 nM, the EC50 (Plasmodium falciparum [2]) is reported as 699 nM and the CC50 [3] is reported as greater than 6250 nM.

In the case of `Cc1ccc(CC(=O)Nc2ccc(I)cc2)cc1`, the EC50 (Plasmodium falciparum [1]) is reported as greater than 11200 nM, the EC50 (Plasmodium falciparum [2]) is reported as greater than 11200 nM and the CC50 [3] is reported as greater than 100000 nM.

`c1ccc(CSc2nc3ccncc3[nH]2)cc1` gave an EC50 (Plasmodium falciparum [1]) greater than 1250 nM, an EC50 (Plasmodium falciparum [2]) greater than 1150 nM and a CC50 [3] greater than 10000 nM.

Molecule `CCN1CCCC1CNC(=O)CN1N=C(c2ccccc2)Cn2c(cc3ccccc32)C1=O` (centres undefined) has an EC50 (Plasmodium falciparum [1]) greater than 1250 nM, an EC50 (Plasmodium falciparum [2]) greater than 1130 nM and a CC50 [3] greater than 10000 nM.

In the case of `COc1ccc(CC(=O)Nc2sc3c(c2C(=O)Nc2cccc4ccccc24)CCCC3)cc1`, the EC50 (Plasmodium falciparum [1]) is reported as greater than 1250 nM, the EC50 (Plasmodium falciparum [2]) is reported as 1130 nM and the CC50 [3] is reported as greater than 10000 nM.

In the case of `CCC(C)(C)c1ccc(Oc2ccc(NC(=O)c3ccc([N+](=O)[O-])o3)cc2)cc1`, the EC50 (Plasmodium falciparum [1]) is reported as 7670 nM, the EC50 (Plasmodium falciparum [2]) is reported as 6510 nM and the CC50 [3] is reported as 57600 nM.

`COc1ccc(-n2nc(C(=O)NCC(=O)Nc3nc4ccccc4s3)c3ccccc3c2=O)cc1Cl` gave an EC50 (Plasmodium falciparum [1]) greater than 1250 nM, an EC50 (Plasmodium falciparum [2]) greater than 1130 nM and a CC50 [3] greater than 10000 nM.

In the case of `Cc1cc(C)nc(SCc2cc(=O)c(OC(=O)c3ccccc3Br)co2)n1`, the EC50 (Plasmodium falciparum [1]) is reported as greater than 11200 nM, the EC50 (Plasmodium falciparum [2]) is reported as greater than 11200 nM and the CC50 [3] is reported as greater than 100000 nM.

For `O=C(NN=Cc1ccc(O)c(O)c1)/C(=C/c1ccccc1)NC(=O)c1ccccc1`, the EC50 (Plasmodium falciparum [1]) was greater than 1250 nM, the EC50 (Plasmodium falciparum [2]) was greater than 1110 nM and the CC50 [3] was greater than 10000 nM.

In the case of `C[n+]1c(C=Cc2ccc(F)cc2)ccc2ccccc21`, the EC50 (Plasmodium falciparum [1]) is reported as 8110 nM, the EC50 (Plasmodium falciparum [2]) is reported as 11100 nM and the CC50 [3] is reported as greater than 100000 nM.

`O=C(NNC(=O)c1cccc(F)c1)C(=O)N1CCOCC1` showed an EC50 (Plasmodium falciparum [1]) greater than 1250 nM, an EC50 (Plasmodium falciparum [2]) greater than 1110 nM and a CC50 [3] greater than 10000 nM.

Molecule `c1ccc(-c2cc(N3CCc4ccccc4C3)nc(-c3ccccn3)n2)nc1` has an EC50 (Plasmodium falciparum [1]) of 251 nM, an EC50 (Plasmodium falciparum [2]) of 1110 nM and a CC50 [3] greater than 10000 nM.

`COc1ccc(C2c3[nH]c4ccccc4c3C[C@@H]3C(=O)N(CCC(C)C)CC(=O)N23)cc1` (some centres undefined) showed an EC50 (Plasmodium falciparum [1]) greater than 1250 nM, an EC50 (Plasmodium falciparum [2]) of 1110 nM and a CC50 [3] greater than 10000 nM.

Molecule `CN(C)c1ccc(/C=C2\C(=O)NC(=O)N(Cc3ccccc3Cl)C2=O)cc1` has an EC50 (Plasmodium falciparum [1]) greater than 1250 nM, an EC50 (Plasmodium falciparum [2]) of 1110 nM and a CC50 [3] greater than 10000 nM.

`C/C=C/C(C(=O)NCCCC)N1C(=O)c2cc(NC(C)=O)ccc2NC(=O)[C@@H]1CCC(=O)O` (some centres undefined) gave an EC50 (Plasmodium falciparum [1]) greater than 1500 nM, an EC50 (Plasmodium falciparum [2]) of 49.9 nM and a CC50 [3] of 442 nM.

Work on `Cc1ccc2cc3cc(C(=O)NC(C)C)sc3nc2c1` yielded an EC50 (Plasmodium falciparum [1]) of 989 nM, an EC50 (Plasmodium falciparum [2]) of 1120 nM and a CC50 [3] greater than 10000 nM.

Work on `COc1ccc(-c2cn(-c3ccc(OC)cc3)c(SCC(=O)Nc3ccccc3)n2)cc1` yielded an EC50 (Plasmodium falciparum [1]) greater than 11200 nM, an EC50 (Plasmodium falciparum [2]) greater than 11200 nM and a CC50 [3] greater than 100000 nM.

`COC(=O)c1ccccc1NC(=O)CSc1nc2ccsc2c(=O)n1CCN1CCCC1` gave an EC50 (Plasmodium falciparum [1]) greater than 11200 nM, an EC50 (Plasmodium falciparum [2]) greater than 11200 nM and a CC50 [3] greater than 100000 nM.

`COc1ccc(OC)c(NC(=O)CSc2nc(NCc3ccc(Cl)cc3)c3ccccc3n2)c1` gave an EC50 (Plasmodium falciparum [1]) greater than 11200 nM, an EC50 (Plasmodium falciparum [2]) greater than 11200 nM and a CC50 [3] greater than 100000 nM.

Molecule `COc1ccc(/C=C/C(=O)NC(=O)c2ccccc2O)cc1OC` has an EC50 (Plasmodium falciparum [1]) of 1080 nM, an EC50 (Plasmodium falciparum [2]) of 1130 nM and a CC50 [3] greater than 10000 nM.

With `CCCCn1c(NN=C2C(=O)Nc3ccccc32)nc2c1c(=O)[nH]c(=O)n2C` the EC50 (Plasmodium falciparum [1]) was 1600 nM, the EC50 (Plasmodium falciparum [2]) was 1130 nM and the CC50 [3] was greater than 10000 nM.

Work on `c1ccc(Cc2nc(NCc3ccc4c(c3)OCO4)c3c4c(sc3n2)CCCC4)cc1` yielded an EC50 (Plasmodium falciparum [1]) greater than 1250 nM, an EC50 (Plasmodium falciparum [2]) greater than 1130 nM and a CC50 [3] greater than 10000 nM.

Molecule `CCCCCCn1c2c(c(=N)c3ccccc31)CCC2` has an EC50 (Plasmodium falciparum [1]) of 681 nM, an EC50 (Plasmodium falciparum [2]) greater than 1120 nM and a CC50 [3] greater than 10000 nM.

With `O=C(COc1ccc(-c2ncccn2)cc1CN1CCCCCC1)NCc1ccccc1C(F)(F)F` the EC50 (Plasmodium falciparum [1]) was greater than 1250 nM, the EC50 (Plasmodium falciparum [2]) was greater than 1150 nM and the CC50 [3] was greater than 10000 nM.

Molecule `Cc1c(Cl)cccc1NC(=O)c1cccnc1Cl` has an EC50 (Plasmodium falciparum [1]) greater than 1250 nM, an EC50 (Plasmodium falciparum [2]) greater than 1140 nM and a CC50 [3] greater than 10000 nM.

`COc1ccc(C2C(C(N)=O)=C(C)Nc3ncnn32)cc1OC` (centres undefined) gave an EC50 (Plasmodium falciparum [1]) of 380 nM, an EC50 (Plasmodium falciparum [2]) of 1150 nM and a CC50 [3] greater than 10000 nM.

For `N#C/C(=C\c1cn(Cc2ccc(Cl)cc2Cl)c2ccccc12)c1nc2ccccc2[nH]1`, the EC50 (Plasmodium falciparum [1]) was 315 nM, the EC50 (Plasmodium falciparum [2]) was 1150 nM and the CC50 [3] was greater than 10000 nM.

Work on `Cc1cc(C)c(CSC(=N)N)c(C)c1CSC(=N)N` yielded an EC50 (Plasmodium falciparum [1]) of 1120 nM, an EC50 (Plasmodium falciparum [2]) greater than 1140 nM and a CC50 [3] greater than 10000 nM.

Molecule `CCC(c1nc2ccccc2c(=O)n1-c1ccc(F)cc1)N(CCc1ccccc1)C(=O)COc1ccccc1` (centres undefined) has an EC50 (Plasmodium falciparum [1]) of 1030 nM, an EC50 (Plasmodium falciparum [2]) of 1140 nM and a CC50 [3] greater than 10000 nM.

Work on `CCC(=O)c1c(C)n(-c2ccc(Br)cc2)c2ccc(O)cc12` yielded an EC50 (Plasmodium falciparum [1]) greater than 769 nM, an EC50 (Plasmodium falciparum [2]) of 1140 nM and a CC50 [3] greater than 10000 nM.

Work on `NC(=O)CSc1nnc2ccc(-c3ccc4c(c3)OCO4)nn12` yielded an EC50 (Plasmodium falciparum [1]) greater than 1250 nM, an EC50 (Plasmodium falciparum [2]) greater than 1110 nM and a CC50 [3] greater than 10000 nM.

Molecule `CCN(CC)CCCC(C)N(Cc1cccc(OCc2ccccc2)c1)C(=O)NCc1ccccc1` (centres undefined) has an EC50 (Plasmodium falciparum [1]) greater than 1250 nM, an EC50 (Plasmodium falciparum [2]) greater than 1100 nM and a CC50 [3] greater than 10000 nM.
